Results published in ChEMBL document CHEMBL5096222, “Discovery of a Trifluoromethoxy Cyclopentanone Benzothiazole Receptor-Interacting Protein Kinase 1 Inhibitor as the Treatment for Alzheimer's Disease” (J Med Chem, 2022).

How the values were obtained:
[1] = biological target: Receptor-interacting serine/threonine-protein kinase 3 (Homo sapiens, UniProt Q9Y572); assay: Binding affinity to recombinant human wild type partial length RIPK3 (M1 to Q307 residues) expressed in bacterial expression system by KINOMEscan TM assay
Sequence of Receptor-interacting serine/threonine-protein kinase 3 (Q9Y572 whole entry, the tested form may be a part): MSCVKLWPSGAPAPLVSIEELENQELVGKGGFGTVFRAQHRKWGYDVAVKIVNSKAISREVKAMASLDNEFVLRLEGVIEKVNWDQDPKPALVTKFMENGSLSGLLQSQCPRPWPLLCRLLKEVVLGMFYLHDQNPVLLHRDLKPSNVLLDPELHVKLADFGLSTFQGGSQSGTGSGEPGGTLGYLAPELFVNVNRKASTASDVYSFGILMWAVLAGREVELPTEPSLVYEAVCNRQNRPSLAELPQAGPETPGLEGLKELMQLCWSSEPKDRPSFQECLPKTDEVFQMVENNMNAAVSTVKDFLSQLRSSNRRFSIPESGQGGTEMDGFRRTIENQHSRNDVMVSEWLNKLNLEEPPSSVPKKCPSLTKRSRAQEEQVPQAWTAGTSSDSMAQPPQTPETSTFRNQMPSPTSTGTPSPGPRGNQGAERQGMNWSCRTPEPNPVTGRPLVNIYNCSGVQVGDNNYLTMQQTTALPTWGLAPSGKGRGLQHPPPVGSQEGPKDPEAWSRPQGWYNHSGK

HT-29 = assay: Anti-necroptotic activity in TSZ induced human HT-29 cells assessed as increase in cell viability pretreated with compound followed by TSZ stimulation and measured after 16 hrs by celltiter-glo luminescent cell viability assay; format: functional, cell-based
[2] = biological target: T1, Receptor-interacting serine/threonine-protein kinase 1 (Homo sapiens, UniProt Q13546); assay: Binding affinity to recombinant human wild type partial length RIPK1 (M1 to K305 residues) expressed in bacterial expression system by KINOMEscan TM assay
T1 sequence (Q13546 whole entry): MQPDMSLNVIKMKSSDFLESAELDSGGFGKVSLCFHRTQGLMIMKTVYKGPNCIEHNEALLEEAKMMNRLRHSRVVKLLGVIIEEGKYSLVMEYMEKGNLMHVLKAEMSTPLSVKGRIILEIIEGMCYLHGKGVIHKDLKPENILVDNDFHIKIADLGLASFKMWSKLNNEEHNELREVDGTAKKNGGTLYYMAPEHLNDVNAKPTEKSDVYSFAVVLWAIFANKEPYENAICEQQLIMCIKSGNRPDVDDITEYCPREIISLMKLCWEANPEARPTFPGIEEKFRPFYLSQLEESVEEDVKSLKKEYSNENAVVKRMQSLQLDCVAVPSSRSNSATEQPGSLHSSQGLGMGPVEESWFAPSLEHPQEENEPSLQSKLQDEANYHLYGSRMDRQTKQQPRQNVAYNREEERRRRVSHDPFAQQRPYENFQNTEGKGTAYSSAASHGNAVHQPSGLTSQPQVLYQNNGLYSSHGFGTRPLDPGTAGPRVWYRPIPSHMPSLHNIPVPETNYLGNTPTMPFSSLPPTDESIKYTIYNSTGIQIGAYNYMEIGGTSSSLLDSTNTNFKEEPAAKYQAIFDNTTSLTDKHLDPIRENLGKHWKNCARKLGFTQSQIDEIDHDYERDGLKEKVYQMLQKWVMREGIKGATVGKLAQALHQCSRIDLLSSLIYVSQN

[3] = Cytotoxicity against human HT-29 cells assessed as reduction in cell viability by celltiter-glo luminescent cell viability assay; format: toxicity, cell-based

- Kd [1]: 77 nM
- Kd [2]: 97 nM
SMILES: O=C(Cc1cccc(C(F)(F)F)c1)Nc1cc(Oc2cc3nc(NC(=O)C4CC4)sc3cc2F)ccc1F
- EC50 (HT-29): 170 nM
- CC50 [3]: 36500 nM
